Assay results from patent publication US20050124618A1, “Methods of modulating angiogenesis and cancer cell proliferation” (priority 2003, published 2005).
“Also recorded” adds a separate entry of the source.

Experiments:
[1] = test system: 20-HETE; experiment: Urinary excretion of 20-HETE in rats (fluorescent HPLC assay); format: in vivo, rat; details: chronic treatment with HET0016 for 7 days, 1 mg/kg ip twice daily
Description: The rats were divided in four groups. […] This dose was chosen based on our previous results (Kehl F et al., Am J Physiol Heart Circ Physiol 282: H1556-H1565, 2002).
Measurement of urinary excretion of 20-HETE: On the last day of electrical stimulation, rats were placed in a metabolic cage that efficiently separates urine from food. Just before the start of the urine collection, food was withdrawn to avoid contamination of the urine sample, and the 24-h control and treated urine samples were collected into a glass bottle packed with ice. The concentration of 20-HETE in the urine samples was measured using a fluorescent HPLC assay, as previously described (Maier K G et al., Am J Physiol Heart Circ Physiol 279: H863-H871, 2000). […] Excess dye was removed using Sep-Pak Vac extraction (Maier K G et al., Am J Physiol Heart Circ Physiol 279: H863-H871, 2000), and the samples were dried under argon, resuspended in 100 μl of methanol, and analyzed by reverse-phase HPLC (Waters) using a fluorescence detector (model number L-7480; Hitachi, Naperville, Ill.). The amount of 20-HETE in the sample was determined by comparing the area of the 20-HETE peak with that of the internal standard.

[2] = test system: CYP4A11 mRNA; experiment: RT-PCR of CYP4A11 mRNA in U251 cultures; format: cell-based, human; details: 10 μM HET0016 for 24 hr
Method: EtOH-treated cultures were used as solvent controls. Briefly, total RNA was isolated with Trizol reagent (Invitrogen) and 1-2 μg RNA was used to synthesize cDNA using a First Strand synthesis kit (Invitrogen). We used PCR primers that specifically recognize CYP4A11, and β-actin-specific primers. A 1 μCi ^32P per sample was added to Platinum PCR Supermix (Invitrogen). The PCR conditions used to amplify CYP4A 11 and β-actin consisted of a precycle of 95° C for 3 min followed by 35 cycles of 95° C for 45 s, 52° C. for 30 s, and 72° C. for 2 min, with final extension at 72° C. for 10 min. The primers used were: β-actin forward primer, 5′-TGCGTGACATTAAGGAGAAG-3′ (SEQ ID NO:3); β-actin reverse primer, 5′-GCT CGT AGC TCT TCT CCA-3′ (SEQ ID NO:4); CYP4A11 forward primer, 5′-CCACCTGGACCAGAGGCCCTACACCACC-3′ (SEQ ID NO:5); CYP4A11 reverse primer, 5′-AGGATATGGGCAGACAGGAA-3′(SEQ ID NO:6). PCR products were subjected to electrophoresis in 5% bis-acrylamide gels and visualized by autoradiography.

[3] = test system: 9L gliosarcoma tumors; experiment: Ki-67 immunohistochemistry of 9L tumor sections; format: in vivo, rat; details: chronic treatment with HET0016
Method: Assessment of tumor volume: The formalin fixed brains were placed in Coronal rat brain matrix, and sliced into 3-mm blocks. These blocks were then embedded in paraffin and […] thick sections were prepared. Sections prepared for H&E staining were placed onto uncoated slides. Sections for immunohistochemistry were placed onto positively charged super frosted slides. The serial sections were either stained with H&E for to assess the size of the tumor or immunohistochemically process for Ki-67 antigen to assess for the degree of proliferation.
The sections prepared for immunohistochemistry were deparaffinized by boiling the sections in a citric buffer (pH 6.0) for 10 minutes on a hot plate. The sections were cooled to room temperature, placed in a blocking buffer [2% normal serum, 1% BSA in PBS] for 1 hr, rinsed twice in a wash buffer [0.05 Tween-20 in PBS], blocked with hydrogen peroxide for 10 min and rinsed in wash buffer. The sections were then incubated for 30 min with rabbit polyclonal anti-ki67 antibody (Abcam Inc., Cambridge, Mass.; 1:200 dilution in 1.0% BSA in PBS). The sections were rinsed in wash buffer, incubated with biotinylated Goat anti-rabbit IgG (Vector Laboratories, Inc., Burlingame, Calif.; 1:500 in PBS) for 30 min, and rewashed. […]

[4] = test system: U251 human glioma cells; experiment: DNA fragmentation and TUNEL assays in U251 cells; format: cell-based; details: HET0016
Method: DNA Fragmentation and TUNEL Assays: HET0016-treated cultures were washed twice with 1×PBS and incubated with lysis buffer [20 mM Tris-HCl, 10 mM EDTA, 0.3% Triton X-100]. Genomic DNA was extracted and separated on a 2% agarose gel. Separated DNA was visualized by staining gels with ethidium bromide (EtBr). […] Coverslips were washed 3× with PBS and air-dried. Samples were then fixed with a freshly prepared fixation solution (4% paraformaldehyde in PBS, pH 7.4) for 1 hr at room temperature, followed by incubation in fresh permeabilization solution (0.1% Triton X-100 in 0.1% sodium citrate) for 2 min on ice. Finally, samples were processed using in situ Cell Death Detection Kit, AP (Roche Diagnostics, Indianapolis, Ind.) according to the manufacturer's recommendations.

## CCCCc1ccc(N=CNO)c(C)c1 [HET0016, N-hydroxy-N′-(4-butyl-2 methylphenyl) formamidine]
[1]
  reduction of 24-h urinary 20-HETE excretion compared with the control group (lecithin): 36%
[2]
  CYP4A11 transcript levels: decreased
[3]
  number of mitotic (Ki67-positive) cells in the 9L tumor: reduction in mitosis; also recorded: greatly reduced the number of mitotic cells
[4]
  induction of apoptosis (DNA fragmentation and TUNEL): does not induce apoptosis
